As usually defined, the IC50 is the midpoint of a concentration-inhibition curve. High values mean weaker potency, low ones greater potency.

The record followed here is PMC11647725, “Discovery of 4-(5-Membered)Heteroarylether-6-methylpicolinamide Negative Allosteric Modulators of Metabotropic Glutamate Receptor Subtype 5” (ACS Medicinal Chemistry Letters, 2024).

A value given as a limit tells only on which side of the number the result lay.

For data set [1], the target named is T1, CYP 1A2 (Homo sapiens, UniProt P05177).
T1 construct: from tissue; host or cells: pooled human liver microsomes (per the earlier reading)
Put plainly: P450 inhibition in pooled human liver microsomes. Type of data set: in vitro ADME. As to conditions: pooled HLM, NADPH, CYP-specific probe substrates; listed as VU6043653. On the technique in general: Liver microsomes are a subcellular fraction often used to study metabolism.

The target of data set [2] is Estrogen Erα (Homo sapiens, UniProt P03372). Briefly: Lead Profiling Screen, Eurofins Panlabs. As to conditions: hum, read-out: % inh at 10 μM. In kind it is binding. The text has this:
(§1) Nonetheless, as a non-aryl/heterobiaryl acetylene mGlu5 NAM with an encouraging in vivo rodent PK profile, we wished to further assess VU6043653 as a novel chemotype. Therefore, we compared metabolites in multiple species to better understand species differences in clearance and metabolism. […] Consistent with the high plasma clearance observed in dogs, high turnover was observed more so in dog hepatocytes than any other species tested (see the Supporting Information for additional details and results). To further evaluate our novel chemotype, the off-target and safety/toxicity profiles for this compound were further investigated.
(§2) Table S2. Lead Profiling Screen – Eurofins Panlabs for VU6043653.

The target of data set [3] is Cannabinoid CB1 (Homo sapiens, UniProt P21554). Put plainly: Lead Profiling Screen, Eurofins Panlabs. As to conditions: Cannabinoid CB1, hum, read-out: % inh at 10 μM. Type of data set: binding.
From the text: as §1, §2

Data set [4] addresses Adenosine A2A (Homo sapiens, UniProt P29274). Briefly: Lead Profiling Screen, Eurofins Panlabs. As to conditions: hum, read-out: % inh at 10 μM. Type of data set: binding.
From the text: as §1, §2

For data set [5], the target named is Dopamine D3 (Homo sapiens, UniProt P35462). Briefly: Lead Profiling Screen, Eurofins Panlabs. Type of data set: binding. As to conditions: Dopamine D3, hum, read-out: % inh at 10 μM.
From the text: as §1, §2

For data set [6], the target named is Histamine H3 (Homo sapiens, UniProt Q9Y5N1). Briefly: Lead Profiling Screen, Eurofins Panlabs. Type of data set: binding. As to conditions: Histamine H3, hum, read-out: % inh at 10 μM.
From the text: as §1, §2

The target of data set [7] is Histamine H1 (Homo sapiens, UniProt P35367). Put plainly: Lead Profiling Screen, Eurofins Panlabs. Type of data set: binding. As to conditions: Histamine H1, hum, read-out: % inh at 10 μM.
From the text: as §1, §2

Data set [8] concerns the target Adrenergic β1 (Homo sapiens, UniProt P08588). Put plainly: Lead Profiling Screen, Eurofins Panlabs. Type of data set: binding. As to conditions: Adrenergic β1, hum, read-out: % inh at 10 μM.
From the text: as §1, §2

The target of data set [9] is Adrenergic α1A (Homo sapiens, UniProt P35348). Put plainly: Lead Profiling Screen, Eurofins Panlabs. Type of data set: binding. As to conditions: hum, read-out: % inh at 10 μM.
From the text: as §1, §2

Data set [10] concerns the target GABAB1A (Homo sapiens, UniProt Q9UBS5). Briefly: Lead Profiling Screen, Eurofins Panlabs. In kind it is binding. As to conditions: hum, read-out: % inh at 10 μM.
From the text: as §1, §2

Data set [11] concerns the target Adrenergic α1D (Homo sapiens, UniProt P25100). Briefly: Lead Profiling Screen, Eurofins Panlabs. As to conditions: hum, read-out: % inh at 10 μM. Type of data set: binding.
From the text: as §1, §2

Data set [12] deals with Endothelin ETB (Homo sapiens, UniProt P24530). Put plainly: Lead Profiling Screen, Eurofins Panlabs. In kind it is binding. As to conditions: hum, read-out: % inh at 10 μM.
From the text: as §1, §2

Data set [13] deals with Adrenergic β2 (Homo sapiens, UniProt P07550). Put plainly: Lead Profiling Screen, Eurofins Panlabs. Type of data set: binding. As to conditions: Adrenergic β2, hum, read-out: % inh at 10 μM.
From the text: as §1, §2

The target in data set [14] is Endothelin ETA (Homo sapiens, UniProt P25101). Briefly: Lead Profiling Screen, Eurofins Panlabs. Type of data set: binding. As to conditions: hum, read-out: % inh at 10 μM.
From the text: as §1, §2

Data set [15] concerns the target Adenosine A1 (Homo sapiens, UniProt P30542). Briefly: Lead Profiling Screen, Eurofins Panlabs. As to conditions: Adenosine A1, hum, read-out: % inh at 10 μM. In kind it is binding.
From the text: as §1, §2

For data set [16], the target named is Adrenergic α2A (Homo sapiens, UniProt P08913). Put plainly: Lead Profiling Screen, Eurofins Panlabs. In kind it is binding. As to conditions: hum, read-out: % inh at 10 μM.
From the text: as §1, §2

Data set [17] addresses Dopamine D4.4 (Homo sapiens, UniProt P21917). Briefly: Lead Profiling Screen, Eurofins Panlabs. In kind it is binding. As to conditions: Dopamine D4.4, hum, read-out: % inh at 10 μM.
From the text: as §1, §2

Data set [18] deals with Bradykinin B2 (Homo sapiens, UniProt P30411). Briefly: Lead Profiling Screen, Eurofins Panlabs. Type of data set: binding. As to conditions: Bradykinin B2, hum, read-out: % inh at 10 μM.
From the text: as §1, §2

For data set [19], the target named is Serotonin (5-Hydroxytryptamine) 5-HT1A (Homo sapiens, UniProt P08908). Briefly: Lead Profiling Screen, Eurofins Panlabs. In kind it is binding. As to conditions: Serotonin 5-HT1A, hum, read-out: % inh at 10 μM.
Data set [20] addresses hERG potassium channel (Homo sapiens, UniProt Q12809). Briefly: Lead Profiling Screen, Eurofins Panlabs. Type of data set: binding. As to conditions: hum, read-out: % inh at 10 μM.
In data set [21] the target is Neuropeptide Y Y1 (Homo sapiens, UniProt P25929). Put plainly: Lead Profiling Screen, Eurofins Panlabs. Type of data set: binding. As to conditions: Neuropeptide Y Y1, hum, read-out: % inh at 10 μM.
The nature of data set [22]: Binding in plasma from rat (equilibrium dialysis). In kind it is in vitro ADME. As to conditions: rat, plasma, fraction unbound; equilibrium dialysis; read-out: Rat fu,plasma. The protocol: Binding in plasma from rat and human.
Determination of compounds’ fraction unbound (f u) in plasma from rat and human was conducted in vitro via equilibrium dialysis using HTDialysis membrane plates. Dialysis membranes (four paired strips per HTD assay) were hydrated as described by the manufacturer and inserted into the HTD plate, which was assembled and prepared for sample addition by the dispensing of blank buffer (DPBS, 100 µL/well) into the ‘top half’ of each membrane-split well. Each compound was diluted into plasma from each species (5 µM final concentration), which was aliquoted in triplicate to the ‘bottom half’ of the prepared HTD plate wells. The HTD plate was sealed and incubated for 6 hours at 37 °C. Following incubation, each well (both top and bottom halves) were transferred (20 µL) to the corresponding wells of a 96-shallow-well (V-bottom) plate. The daughter plates were then matrix-matched (buffer side wells received equal volume of plasma, and plasma side wells received equal volume of buffer), and extraction solution (120 µL; acetonitrile containing 50 nM carbamazepine as IS) was added to all wells of both daughter plates to precipitate protein and extract test article. The plates were then sealed and centrifuged (3500 rcf) for 10 minutes at ambient temperature. Supernatant (60 µL) from each well of the daughter plates was then transferred to the corresponding wells of new daughter plates (96-shallow-well, V bottom) containing water (Milli-Q, 60 µL/well), and the plates were sealed in preparation for LC-MS/MS analysis (see below). fu was calculated as (analyte to IS MS peak area ratio from Trans-buffer side) / (analyte to IS MS peak area ratio from Cis-plasma side). Mean values for each species were calculated from 3 replicates. […]
Mean values for each species were calculated from 3 replicates. […]
After 5 minutes (pre-incubation), reactions were initiated by addition of nicotinamide adenine dinucleotide phosphate (NADPH, 1 mM final concentration). At selected time intervals (0, 3, 7, 15, 25, and 45 minutes) post-addition of NADPH, aliquots (50 µL) were taken and placed into a 96-shallow-well plate containing ice cold acetonitrile (150 µL) with carbamazepine (IS, 50 nM). The plates were then centrifuged (3000 rcf at 4 °C) for 10 minutes. The supernatants were transferred to a new 96-shallow-well daughter plate and diluted (1:1 v/v) with water (Milli-Q filtered). The plates were then sealed in preparation for LC-MS/MS analysis (see below).
(In equilibrium dialysis only unbound substance equilibrates across the membrane.)

The subject of data set [23] is Thyroid Hormone. Put plainly: Lead Profiling Screen, Eurofins Panlabs. Type of data set: binding. As to conditions: rat.

T1 sequence (P05177 whole entry): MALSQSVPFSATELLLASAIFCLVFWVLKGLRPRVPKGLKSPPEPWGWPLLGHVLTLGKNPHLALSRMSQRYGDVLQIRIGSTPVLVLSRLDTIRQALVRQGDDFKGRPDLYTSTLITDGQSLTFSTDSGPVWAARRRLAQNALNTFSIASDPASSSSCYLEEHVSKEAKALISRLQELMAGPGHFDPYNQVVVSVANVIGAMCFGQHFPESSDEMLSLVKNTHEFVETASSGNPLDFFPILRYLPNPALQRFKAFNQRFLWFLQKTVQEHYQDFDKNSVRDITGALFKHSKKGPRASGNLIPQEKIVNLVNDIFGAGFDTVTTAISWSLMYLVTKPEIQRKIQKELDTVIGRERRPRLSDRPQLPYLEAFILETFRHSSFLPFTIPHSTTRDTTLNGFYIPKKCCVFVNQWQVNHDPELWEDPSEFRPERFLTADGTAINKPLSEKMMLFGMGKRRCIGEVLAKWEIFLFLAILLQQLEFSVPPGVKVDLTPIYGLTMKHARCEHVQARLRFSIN
Sequence of Endothelin ETA (P25101 21-427): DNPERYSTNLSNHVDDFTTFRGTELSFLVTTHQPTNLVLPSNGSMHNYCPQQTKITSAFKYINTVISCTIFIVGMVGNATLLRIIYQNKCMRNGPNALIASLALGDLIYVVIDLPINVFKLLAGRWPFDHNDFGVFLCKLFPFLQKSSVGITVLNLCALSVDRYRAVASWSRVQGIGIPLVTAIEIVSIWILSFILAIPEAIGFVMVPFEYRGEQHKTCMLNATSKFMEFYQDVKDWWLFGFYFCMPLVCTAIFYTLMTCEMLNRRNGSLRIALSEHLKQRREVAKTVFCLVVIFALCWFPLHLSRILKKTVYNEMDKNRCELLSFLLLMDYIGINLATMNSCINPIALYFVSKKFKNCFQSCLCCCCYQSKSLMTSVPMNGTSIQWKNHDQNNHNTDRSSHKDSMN
Sequence of Dopamine D4.4 (P21917 whole entry): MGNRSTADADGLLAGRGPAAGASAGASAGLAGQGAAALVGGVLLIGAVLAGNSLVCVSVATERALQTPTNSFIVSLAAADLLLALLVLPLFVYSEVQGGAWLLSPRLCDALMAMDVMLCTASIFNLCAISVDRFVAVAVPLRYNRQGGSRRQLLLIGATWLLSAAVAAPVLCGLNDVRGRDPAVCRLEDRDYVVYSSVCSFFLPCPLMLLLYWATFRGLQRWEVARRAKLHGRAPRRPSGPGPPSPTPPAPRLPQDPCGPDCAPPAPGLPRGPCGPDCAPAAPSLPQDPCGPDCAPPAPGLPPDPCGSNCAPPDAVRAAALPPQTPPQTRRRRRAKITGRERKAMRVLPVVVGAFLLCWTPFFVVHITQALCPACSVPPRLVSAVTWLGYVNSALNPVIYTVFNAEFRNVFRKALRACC
Sequence of Endothelin ETB (P24530 27-442): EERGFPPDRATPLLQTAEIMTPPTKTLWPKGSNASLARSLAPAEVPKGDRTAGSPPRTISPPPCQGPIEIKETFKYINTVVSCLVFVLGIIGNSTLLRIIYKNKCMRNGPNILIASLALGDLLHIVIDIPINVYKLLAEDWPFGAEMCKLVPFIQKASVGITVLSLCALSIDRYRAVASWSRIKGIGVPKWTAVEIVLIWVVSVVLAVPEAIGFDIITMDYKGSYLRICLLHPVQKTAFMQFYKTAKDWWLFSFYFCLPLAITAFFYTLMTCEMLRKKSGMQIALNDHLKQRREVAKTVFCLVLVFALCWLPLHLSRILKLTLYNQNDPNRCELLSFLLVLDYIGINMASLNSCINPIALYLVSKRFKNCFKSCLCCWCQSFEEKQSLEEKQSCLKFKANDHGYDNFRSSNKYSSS
Sequence of Adrenergic β2 (P07550 whole entry): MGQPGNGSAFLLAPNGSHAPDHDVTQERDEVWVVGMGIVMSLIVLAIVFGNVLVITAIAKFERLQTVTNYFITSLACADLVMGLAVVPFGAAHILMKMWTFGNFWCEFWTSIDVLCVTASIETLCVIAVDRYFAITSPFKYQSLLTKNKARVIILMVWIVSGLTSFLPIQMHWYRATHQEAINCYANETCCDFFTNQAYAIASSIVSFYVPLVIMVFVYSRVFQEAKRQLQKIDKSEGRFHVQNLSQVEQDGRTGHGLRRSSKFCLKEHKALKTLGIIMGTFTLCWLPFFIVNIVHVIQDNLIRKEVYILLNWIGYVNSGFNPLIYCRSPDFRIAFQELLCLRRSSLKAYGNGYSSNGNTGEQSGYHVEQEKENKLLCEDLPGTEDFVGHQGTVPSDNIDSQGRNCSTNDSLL
Sequence of Adrenergic α1D (P25100 whole entry): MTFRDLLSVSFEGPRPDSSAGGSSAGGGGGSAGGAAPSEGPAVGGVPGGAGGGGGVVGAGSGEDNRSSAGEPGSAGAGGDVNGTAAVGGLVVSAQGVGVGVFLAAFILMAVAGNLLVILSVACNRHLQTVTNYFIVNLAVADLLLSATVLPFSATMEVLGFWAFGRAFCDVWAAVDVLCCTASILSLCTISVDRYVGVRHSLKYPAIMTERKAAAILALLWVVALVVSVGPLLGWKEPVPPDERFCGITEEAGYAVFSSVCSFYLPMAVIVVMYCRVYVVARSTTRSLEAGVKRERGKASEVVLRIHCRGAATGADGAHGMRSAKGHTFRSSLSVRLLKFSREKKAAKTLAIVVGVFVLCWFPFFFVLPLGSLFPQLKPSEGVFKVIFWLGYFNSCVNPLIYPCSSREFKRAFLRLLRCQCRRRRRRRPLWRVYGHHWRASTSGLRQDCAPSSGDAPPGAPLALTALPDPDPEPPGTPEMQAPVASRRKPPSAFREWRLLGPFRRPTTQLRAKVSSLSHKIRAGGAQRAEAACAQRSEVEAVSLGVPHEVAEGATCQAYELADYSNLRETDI
Sequence of Histamine H3 (Q9Y5N1 whole entry): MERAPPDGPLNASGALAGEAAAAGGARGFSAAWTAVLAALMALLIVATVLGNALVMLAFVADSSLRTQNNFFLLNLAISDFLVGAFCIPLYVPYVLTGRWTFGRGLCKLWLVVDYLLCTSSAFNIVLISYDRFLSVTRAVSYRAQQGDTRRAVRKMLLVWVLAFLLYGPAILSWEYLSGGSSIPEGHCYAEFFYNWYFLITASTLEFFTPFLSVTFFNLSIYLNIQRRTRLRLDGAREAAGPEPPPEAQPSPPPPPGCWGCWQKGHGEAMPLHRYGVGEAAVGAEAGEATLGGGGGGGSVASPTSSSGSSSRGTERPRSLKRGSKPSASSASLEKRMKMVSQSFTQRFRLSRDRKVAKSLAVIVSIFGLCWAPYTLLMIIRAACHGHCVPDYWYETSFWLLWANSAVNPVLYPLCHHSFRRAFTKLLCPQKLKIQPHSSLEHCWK
Sequence of hERG potassium channel (Q12809 whole entry): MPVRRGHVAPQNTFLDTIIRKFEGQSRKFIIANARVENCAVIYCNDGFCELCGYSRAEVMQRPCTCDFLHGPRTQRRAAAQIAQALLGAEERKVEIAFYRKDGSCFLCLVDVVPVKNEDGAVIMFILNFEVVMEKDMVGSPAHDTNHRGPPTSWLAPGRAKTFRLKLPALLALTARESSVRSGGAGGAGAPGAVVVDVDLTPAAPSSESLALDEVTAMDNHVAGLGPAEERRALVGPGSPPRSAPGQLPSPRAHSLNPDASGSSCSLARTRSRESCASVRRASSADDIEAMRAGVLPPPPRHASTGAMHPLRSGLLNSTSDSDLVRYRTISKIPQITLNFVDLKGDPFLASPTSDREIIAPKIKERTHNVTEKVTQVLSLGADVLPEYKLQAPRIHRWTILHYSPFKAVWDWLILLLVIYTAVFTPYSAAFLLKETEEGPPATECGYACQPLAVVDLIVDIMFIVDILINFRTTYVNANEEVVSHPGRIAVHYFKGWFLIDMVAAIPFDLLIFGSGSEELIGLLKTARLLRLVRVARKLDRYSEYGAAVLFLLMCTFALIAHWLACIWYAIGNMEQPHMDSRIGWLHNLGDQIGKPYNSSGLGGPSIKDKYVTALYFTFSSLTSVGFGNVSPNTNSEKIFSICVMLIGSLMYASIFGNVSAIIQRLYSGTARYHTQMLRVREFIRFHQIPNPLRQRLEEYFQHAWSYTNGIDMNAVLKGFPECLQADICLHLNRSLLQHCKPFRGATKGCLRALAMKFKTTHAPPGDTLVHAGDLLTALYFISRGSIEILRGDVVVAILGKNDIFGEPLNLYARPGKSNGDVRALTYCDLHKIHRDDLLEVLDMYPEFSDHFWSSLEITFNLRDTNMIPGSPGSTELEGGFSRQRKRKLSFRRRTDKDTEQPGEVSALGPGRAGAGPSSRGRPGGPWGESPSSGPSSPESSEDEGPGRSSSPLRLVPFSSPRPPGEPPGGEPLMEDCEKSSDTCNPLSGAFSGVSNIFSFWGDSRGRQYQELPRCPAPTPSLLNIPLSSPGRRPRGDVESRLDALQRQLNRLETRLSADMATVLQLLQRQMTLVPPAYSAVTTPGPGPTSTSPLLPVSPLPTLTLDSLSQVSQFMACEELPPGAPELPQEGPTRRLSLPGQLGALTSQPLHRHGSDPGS
Sequence of Serotonin (5-Hydroxytryptamine) 5-HT1A (P08908 whole entry): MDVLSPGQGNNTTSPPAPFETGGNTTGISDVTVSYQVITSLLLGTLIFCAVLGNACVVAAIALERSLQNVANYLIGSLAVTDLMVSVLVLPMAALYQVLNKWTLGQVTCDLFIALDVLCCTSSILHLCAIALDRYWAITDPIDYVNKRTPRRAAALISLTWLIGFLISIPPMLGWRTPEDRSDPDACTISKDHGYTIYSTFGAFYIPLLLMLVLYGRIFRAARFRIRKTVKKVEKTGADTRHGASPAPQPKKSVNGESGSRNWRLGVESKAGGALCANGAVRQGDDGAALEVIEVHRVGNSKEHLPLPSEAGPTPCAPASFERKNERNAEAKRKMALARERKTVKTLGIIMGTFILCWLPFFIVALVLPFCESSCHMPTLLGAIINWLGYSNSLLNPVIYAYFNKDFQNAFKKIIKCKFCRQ

With `Cc1cc(Oc2cnn(C)c2)cc(C(=O)Nc2ccc(F)cn2)n1` [22iA], the IC50 in data set [1] is ≥ 30 µM. The inhibition at 10 µM in data set [2] is 4%; in [3], 15%; in [4], 9%; in data set [5] it was -6%; in data set [6] it was 5%; in data set [7], 24%. For the same compound, the inhibition at 10 µM in data set [8] is -4%; in data set [9], 0%; in [10], 3%; in data set [11], 3%; in data set [12], -13%; in [13] it was -5%. Also, the inhibition at 10 µM was -2% in data set [14]; 20% in [15]; 8% in data set [16]; -9% in data set [17]; 1% in data set [18]; 3% in data set [19]. Moreover, the inhibition at 10 µM in [20] is 14%; in [21], -2%. Further, in data set [22], the fraction unbound at 6 h, 5 µM turned out to be 0.059. For the same compound, the “% inh at 10 μM” value in data set [23] is reported as -2%.
